Assay results as given in patent US20230279002A1, “Polymorphs of Crystalline Forms of 3,10-dimethoxy-5,8,13,13a-tetrahydro-6H-isoquinolino[3,2-a]isoquinolin-9-yl 3-fluorobenzenesulfonate and Salts Thereof” (CVI Pharmaceuticals Limited, priority 2020, published 2023).
Counter-ions that a name gives are not always drawn. Blank lines part the entries; values can stand above or below the compound they belong to.

Assays:
[1] = TGA (Thermal Gravimetric Analysis) weight loss; assay type: physicochemical
Method: TGA (Thermal Gravimetric Analysis): Samples of compounds (4˜6 mg) were weighed into the pan, and heated under nitrogen purge using a ramp rate of 20° C./min over the range of 30° C.˜350° C.

[2] = Solubility of salts in water, SGF and FaSSIF at 25° C. for 24 hours (HPLC)
Method: (§3) About 5 mg of seven kinds of salts were weighed into each vial, and 2 mL of medium was added, respectively. The medium included water, SGF and FaSSIF. All samples were stirred at 25° C. for 24 hours.

[3] = Solid stability at 40° C./0% RH (closed) and 40° C./75% RH (open), HPLC; assay type: physicochemical; settings: for 0 day % remaining / 5 day % remaining / 10 day % remaining: solid
Method: (§1) Solid stability: 5 mg of 2a was weighed into scintillation vials sealed properly and stored at 40° C./0% RH(closed), 40° C./75% RH(open) under dark conditions to avoid the effect of light on stability. Samples were collected at day 0, 5 and 10 and analyzed by HPLC.
Solid stability: 5 mg of compound was weighed into vials sealed properly and stored at 40° C./0% RH (closed), 40° C./75% RH (open) under dark conditions to avoid the effect of light. Samples were analyzed by HPLC at days 0, 7, and 21.
as §1, with “stability of compound 1a:” for “stability:”, “compound were accurately” for “of 2a was”, “condition” for “conditions”, “should be” for “were”, “10 days” for “10”

[4] = test system: serum LDL-C, TC, Apo B, and PCSK9; assay: Proof-of-mechanism phase 1b study in subjects with elevated LDL-C; assay type: in vivo, human; settings: 28 days, compared with placebo cohort
Source text: (§2) Compound 1a has undergone a double-blind, randomized phase 1a study conducted in healthy volunteers. […] Currently, a phase 2 POC trial is underway in China in patients with hypercholesterolemia.

[5] = Phase 1 studies, safety and tolerability in healthy volunteers and hyperlipidemic subjects; assay type: in vivo, human
Source text: as §2

[6] = Long term stability at 30° C./65% RH; assay type: physicochemical
serum PCSK9 = assay: Double-blind, randomized phase 1a study in healthy volunteers; assay type: in vivo, human; settings: 10 days oral 300 mg QD, compared to baseline
Source text: as §2

physchem = settings: 25 °C, thermodynamic from solid, Solubility (mg/mL)
Method: as §3

[7] = Medium: FaSSIF, 25° C., stirred 24 hours, HPLC
[8] = Medium: SGF, 25° C., stirred 24 hours, HPLC
[9] = Medium: Water, 25° C., stirred 24 hours, HPLC

- TGA weight loss (from RT to 120° C.) [1]: 0.24%
- TGA weight loss (in words) ([1]; room temperature to 120° C.): no significant weight loss
- solubility [2, 7]: 0.001 mg/mL
- solubility [2, 8]: 0.214 mg/mL
- solubility [2, 9]: 0.110 mg/mL
Compound: COc1ccc2c(c1)CCN1Cc3c(ccc(OC)c3OS(=O)(=O)c3cccc(F)c3)C[C@H]21 [besylate]

- TGA weight loss (from RT to 120° C.) [1]: 0.44%
- TGA weight loss (in words) ([1]; room temperature to 120° C.): almost no obvious weight loss
- solubility [2, 7]: 0.001 mg/mL
- solubility [2, 8]: 0.221 mg/mL
- solubility [2, 9]: 0.086 mg/mL
Compound: COc1ccc2c(c1)CCN1Cc3c(ccc(OC)c3OS(=O)(=O)c3cccc(F)c3)C[C@H]21 [maleate]

- TGA weight loss (from RT to 120° C.) [1]: 0.12%
- TGA weight loss (in words) ([1]; room temperature to 120° C.): no weight loss
- solubility at 24 h ([2]; FaSSIF, 25 °C, fassif, thermodynamic from solid, Solubility (mg/mL), Medium: FaSSIF, 25° C., stirred 24 hours, HPLC): 2 µg/mL
- solubility [2, 8]: 0.496 mg/mL
- solubility [2, 9]: 1.370 mg/mL
- Solubility compared with other salts ([2]; water and SGF, 25° C., 24 hours): better than that of other salts
Compound: COc1ccc2c(c1)CCN1Cc3c(ccc(OC)c3OS(=O)(=O)c3cccc(F)c3)C[C@H]21 [sulfate]
- Solubility compared with other polymorphs (summary) ([2]; summary of the Examples): generally more soluble than other polymorphs

- TGA weight loss (from RT to 120° C.) [1]: 1.50%
- TGA weight loss ([1]; room temperature to 120° C.): 1.50%
- solubility [2, 7]: 0.002 mg/mL
- solubility [2, 8]: 0.156 mg/mL
- solubility [2, 9]: 0.163 mg/mL
Compound: COc1ccc2c(c1)CCN1Cc3c(ccc(OC)c3OS(=O)(=O)c3cccc(F)c3)C[C@H]21 [hydrobromide salt]

Compound: hydrochloride
- TGA weight loss (from RT to 120° C.) [1]: 0.09%

- Solid-state stability (HPLC) ([3]; 40° C./0% RH (closed) and 40° C./75% RH (open), dark, up to 10 days): substantially stable
- 0 day % remaining ([3]; 40° C. (0% RH, closed)): 99.65%
- 5 day % remaining ([3]; 40° C. (0% RH, closed)): 101.65%
- 10 day % remaining ([3]; 40° C. (0% RH, closed)): 100.85%
- 0 day % remaining ([3]; 40° C./75% RH (open)): 99.65%
- 5 day % remaining ([3]; 40° C./75% RH (open)): 100.66%
- 10 day % remaining ([3]; 40° C./75% RH (open)): 101.31%
- % Remaining ([6]; 1 month): 100.30%
- % Remaining ([6]; 3 month): 100.00%
- % Remaining ([6]; 6 month): 99.30%
- % Remaining ([6]; 12 month): 99.60%
- % Remaining ([6]; 18 month): 99.20%
- % Remaining ([6]; 24 month): 99.50%
- % Remaining ([6]; 36 month): 100.40%
- % Remaining ([6]; time 0): 100.10%
- Long term stability ([6]; up to 36 months): stable
Compound: COc1ccc2c(c1)CCN1Cc3c(ccc(OC)c3OS(=O)(=O)c3cccc(F)c3)C[C@H]21 [Compound 1a, 3,10-dimethoxy-5,8,13,13a-tetrahydro-6H-isoquinolino[3,2-a]isoquinolin-9-yl 3-fluorobenzenesulfonate]
- serum Apo B [4]: significantly reduced
- serum LDL-C [4]: significantly reduced
- serum PCSK9 levels [4]: significantly reduced
- serum TC [4]: significantly reduced
- safety profile [5]: favorable safety profile
- tolerability [5]: well tolerated
- serum PCSK9 levels (serum PCSK9): significantly reduced

- TGA weight loss (from RT to 120° C.) [1]: 0.60%
- TGA weight loss (in words) ([1]; room temperature to 120° C.): almost no significant weight loss
- solubility at 24 h (physchem; fassif): < 1 µg/mL
- solubility at 24 h (physchem; simulated gastric fluid): 399 µg/mL
- solubility at 24 h (physchem; water): 411 µg/mL
Compound: COc1ccc2c(c1)CCN1Cc3c(ccc(OC)c3OS(=O)(=O)c3cccc(F)c3)C[C@H]21 [tosylate]
